# In patent publication US9565857B2, “Antimicrobial solutions” (Board of Regents, The University of Texas System, priority 2010, dated 2017):
# Key:
# MRSA = assay: modified quantitative germicidal spray / quantitative carrier test, Example 1; type: cell-based, Staphylococcus aureus; details: criterion: complete kill on 9 of 10 carriers, positive carrier at least 99% reduction; one minute
# Description: Sterile 50 mL centrifuge tubes, pre-filled with 20 mL of desired neutralizer.
# Use 3″×1″ sterile glass containers. Place each carrier into a sterile Petri plastic dish.
# Inoculate each carrier with 10 μL of bacterial or fungal suspension. If a carrier has a frosted end, inoculate the non-frosted end.
# Using a sterile inoculating needle, spread the inoculum into an approximate 1 cm×1 cm square.
# Dry the carriers in a 35° C. incubator for 30 min (lids cracked) or 40 min (lids closed).
# Spray each carrier as specified by the test product. Ensure the inoculated area is thoroughly covered. Because of the time it takes to transfer the carrier into the neutralizer, a 30-second (or longer) interval time is recommended.
# After the specified exposure time, transfer each carrier to a pre-filled centrifuge tube using forceps. Be sure to pick up the carrier by the non-inoculated end and place the inoculated end into the neutralizer.
# Immediately close the cap and invert the tube several times (10 should be sufficient) so the neutralizer coats the entire carrier.
# From this point on, follow the enumeration procedure as specified in the Quantitative Carrier Test SOP. […]
# The aim of these sets of experiments is to compare the activity of these various solutions on a 10-set slid carriers of MRSA using standard EPA quantitate carrier test in 25-50% calf serum.
# Candida glabrata = assay: modified Kuhn's biofilm model on silicone discs, lock solutions; type: cell-based; details: quantitative culture of biofilm discs after 2 hrs in solution at 37° C.
# Description: (§1) Biofilm was grown on sterile silicone discs following a modified Kuhn's method. Briefly, silicone discs were placed into a 24 well tissue culture plate and incubated overnight at 37° C. The plasma was then removed and replaced with 1 mL of 5.5×10^5 CFU/mL inoculum of various organisms. The plates were then incubated for an additional 24 hrs at 37° C. Inoculum was then removed and discs were washed shaking for 30 minutes in 0.9% sterile saline. After washing the discs were placed in 1 mL of various antimicrobial solutions and incubated at 37° C. for 2 hrs. The discs were then removed and placed in 5 mL of 0.9% sterile saline and sonicated to disrupt any remaining biofilm. The resulting solution was then quantitatively cultured by making serial dilutions in 0.9% sterile saline and plating on agar plates, TSA+5% sheep blood for all bacterial organisms and Sabouraud Dextrose Agar for yeasts. A total of 3-9 discs were used for both organisms and respective labs solutions (see Tables 4-6).
# (§2) Statistical methods: Wilcoxon rank sum tests were used for comparisons. All the analyses were performed using SAS version 9.1 (SAS Institute Inc., Cary, N.C.).
# [1] = test system: MDR-Pseudomonas aeruginosa (PS 4689); assay: as above; type: cell-based; details: quantitative culture of biofilm discs after 2 hrs in solution at 37° C.
# Description: as §1, §2
# [2] = test system: methicillin resistant Staphylococcus aureus (MRSA 4798); assay: as above; type: cell-based; details: quantitative culture of biofilm discs after 2 hrs in solution at 37° C.
# Description: as §1, §2
SMILES,test of being highly effective against MRSA (passed/failed) (MRSA),Mean (Candida glabrata),Median (range) (Candida glabrata),Mean [1],Median (range) [1],Mean [2],Median (range) [2]
"N=C(NCCCCCCNC(=N)NC(=N)Nc1ccc(Cl)cc1)NC(=N)Nc1ccc(Cl)cc1 [0.06% CHG alone, 1,1′-hexamethylene-bis-[5-(4-chlorophenyl)-biguanide]]",failed the test,,,,,,
"OCC(O)CO [50% Glycerol alone, Glycerol]",,6.2 × 10^3,1.1 × 10^3,1.0 × 10^6,1.0 × 10^6,1.0 × 10^7,1.0 × 10^6
